Laboratory results as given in US20260191849A1, “PHARMACEUTICAL COMPOSITION FOR TREATMENT OF CANCER” (WIGEN BIOMEDICINE TECHNOLOGY (SHANGHAI) CO., LTD., priority 2022, published 2026).
Where two headings read alike, the source gives them in different places.

Legend:
[1] = system: HT29 subcutaneous xenograft tumors; test: In vivo pharmacodynamic study, HT29 subcutaneous xenograft tumor model of mice (Biological Example 3); parameters: species or system BALB/c nude mice; settings: for TGI / Tumor volume on day 1 of administration / Tumor volume on day 28 of administration: 80 mg/kg intragastric once daily; for TGI / Tumor volume on day 28 of administration: day 28; for Tumor volume on day 1 of administration: day 1 (baseline); for inhibitory effects on the HT29 subcutaneous xenograft tumor in mice compared with AMG650: 80 mg/kg, in words
Description: BALB/c nude mice were each inoculated subcutaneously with 5×10^6 HT29 cells on the left dorsal side. After the tumors grew to 100-150 mm^3, the mice were randomly divided into the following groups for intragastric administration once daily: group 1: vehicle control group; group 2: compound 661 (80 mg/kg); group 3: compound 669 (80 mg/kg); group 4: compound 677 (80 mg/kg); group 5: compound 714 (80 mg/kg); group 6: compound 727 (80 mg/kg); group 7: compound 740 (80 mg/kg); and group 8: AMG65 (80 mg/kg). The tumor volume was measured twice weekly and at the end of administration. […].

[2] = system: Histone H3 Ser10 site in HT29 cells; test: Phosphorylation assay of histone H3 Ser10 site in HT29 cells, immunofluorescence (Biological Example 4); format: cell-based; settings: Homo sapiens, HT-29, 6 h, FITC/DAPI
Description: HT29 cells were seeded in a 96-well plate (Fisher 160376) at 8000 cells/well. The next day, the serially diluted compounds were added. Six hours after the addition of the compounds, the cells were washed once with 1×PBS, immobilized with 4% PFA for 15 min, further washed three times with 1×PBS, and permeabilized with 0.02% Triton-X100 for 10 min. Then, blocking was performed for 15-30 min using a blocking buffer. After a primary antibody (Phospho-Histone H3 (Ser10)) at a 1:3000 dilution was added, the well plate was left to stand at 4° C. overnight. The next day, the cells were washed three times with 1×PBS, and then a secondary antibody (Fluorescein (FITC)-conjugated Affinipure Goat Anti-Rabbit IgG (H+L)) at a 1:1000 dilution was added. The cells were incubated in the dark for 1-2 h and then washed three times with 1×PBS. Subsequently, the cell nuclei were stained using DAPI. The ratio of phosphorylation (FITC/DAPI) at H3 Ser10 site in HT29 cells was quantified. The effects of the compounds on Phospho-Histone H3 were evaluated, and EC50 values of the compounds were calculated.

[3] = system: HT29 subcutaneous xenograft tumors; test: In vivo pharmacodynamic study of combination therapy, HT29 subcutaneous xenograft tumor model of mice (Biological Example 14); parameters: species or system BALB/c nude mice; settings: for Tumor volume on day 1 of administration: day 1 (baseline)
Description: BALB/c nude mice were each inoculated subcutaneously with 5×10^6 HT29 cells on the left dorsal side. After the tumors grew to 100-150 mm^3, the mice were randomly divided into the following groups for intragastric administration once daily for 14 consecutive days: group 1: vehicle control group; group 2: AMG650 (50 mpk, PO, QD); group 3: compound 714 (50 mpk, PO, QD); group 4: AMG650 (50 mpk, PO, QD)+Onvasertib (20 mpk, PO, QD); group 5: compound 714 (50 mpk, PO, QD)+Onvasertib (20 mpk, PO, QD); and group 6: Onvasertib (20 mpk, PO, QD). The administration to all the groups was stopped on day 15, and the tumor growth continued to be observed until day 21. The tumor volume was measured twice weekly and at the end of administration. […]

SK-OV-3 cells = test: Combined use of compound 257 or AMG650 with PLK1 inhibitor on SK-OV-3 cell viability, 168 h (Biological Example 21); format: cell-based; settings: Homo sapiens, SK-OV-3, 168 h, SK-OV-3 cells, 168 h, read-out: Volasertib IC50
Description: (§1) SK—OV-3 cells were seeded on a 384-well plate at 3000 cells/well. After overnight adherence culture, DMSO or compound 257 or AMG650 serially diluted in a 1:5 ratio from 400 nM and a PLK1 inhibitor with a specified concentration were added. The cell viability was assessed 168 h after dosing by measuring the intracellular ATP content. […] Furthermore, interactions between the drugs were also analyzed using the BLISS independence model, and the results are shown in FIG. 11 and FIG. 12.

HT29 cells = test: Combined use of compound 257 or AMG650 with PLK1 inhibitor (Volasertib) on HT29 cell viability, 168 h (Biological Example 22); format: cell-based; settings: Homo sapiens, HT-29, 168 h, HT29 cells, 168 h, read-out: Volasertib IC50
Description: as §1, with “HT29” for “SK—OV-3”, “15” for “11”, “16.” for “12.”

[4] = PO QD 14 days, AMG650/714 50 mpk, Onvasertib 20 mpk
[5] = PO QD 14 days, AMG650/714 50 mpk, Onvasertib 20 mpk, day 21, after stop of administration
[6] = KIF18A inhibitor AMG650 0.0001 nM
[7] = KIF18A inhibitor AMG650 0.64 nM
[8] = KIF18A inhibitor Compound 257 0.0001 nM
[9] = KIF18A inhibitor Compound 257 0.64 nM
[10] = KIF18A inhibitor Compound 257 3.2 nM
[11] = KIF18A inhibitor Compound 257 16 nM
[12] = KIF18A inhibitor Compound 257 80 nM
[13] = KIF18A inhibitor Compound 257 400 nM

`COc1ccc(NC(=O)c2ccc(NS(=O)(=O)CCOC(C)=O)cc2N2CCC3(CC2)CC3)nc1N1CCC(F)(F)CC1` [Compound 661] showed a TGI [1] of 61%.

Molecule `COc1ccc(C(=O)Nc2ccc(NS(=O)(=O)CCOC(C)=O)cc2N2CCC3(CC2)CC3)nc1N1CCC(F)(F)CC1` [Compound 669] has a TGI [1] of 30%.

With `COc1ccc(NC(=O)c2ccc(S(=O)(=O)NCCOC(C)=O)cc2N2CCC3(CC2)CC3)nc1N1CCC(F)(F)CC1` [Compound 677] the TGI [1] was 55%.

For `COc1ccc(NC(=O)c2ccc(NS(=O)(=O)CCOC(=O)[C@@H](N)C(C)C)cc2N2CCC3(CC2)CC3)nc1N1CCC(F)(F)CC1` [Compound 714], the “Tumor volume on day 1 of administration” value [1] was 121 mm^3, the TGI [1] was 80% and the “Tumor volume on day 28 of administration” value [1] was 424 mm^3. For the same molecule, the “inhibitory effects on the HT29 subcutaneous xenograft tumor in mice compared with AMG650” value (“inhibitory effects … compared with AMG650” below) [1] was “stronger inhibitory effects”, the EC50 [2] was 39.2 nM and the “Tumor volume on day 1 of administration” value [3, 4] was 134 mm^3. The “TGI on day 15” value [3, 4] was 121%, the “Tumor volume on day 15 of administration” value [3, 4] was 17 mm^3 and the “TGI on day 21” value [3, 5] was 110%. The “Tumor volume on day 21 of administration” value [3, 5] was 49 mm^3, the “tumor inhibitory effect, combined use with the PLK1 inhibitor Onvasertib compared with monotherapy” value ([3]; combined with Onvasertib, in words) was “stronger tumor inhibitory effect” and the “therapeutic efficacy of monotherapy in HT29-bearing mice” value ([3]; in words) was “able to inhibit tumor growth”.

In the case of `COc1ccc(C(=O)Nc2ccc(NS(=O)(=O)CCOC(=O)[C@@H](N)C(C)C)cc2N2CCC3(CC2)CC3)nc1N1CCC(F)(F)CC1` [Compound 727], the “Tumor volume on day 1 of administration” value [1] is reported as 121 mm^3, the TGI [1] is reported as 73% and the “Tumor volume on day 28 of administration” value [1] is reported as 519 mm^3. The “inhibitory effects … compared with AMG650” value [1] was “stronger inhibitory effects”.

For `COc1ccc(NC(=O)c2ccc(S(=O)(=O)NCCOC(=O)[C@@H](N)C(C)C)cc2N2CCC3(CC2)CC3)nc1N1CCC(F)(F)CC1` [Compound 740], the “Tumor volume on day 1 of administration” value [1] was 121 mm^3, the TGI [1] was 67% and the “Tumor volume on day 28 of administration” value [1] was 605 mm^3. For the same molecule, the “inhibitory effects … compared with AMG650” value [1] was “stronger inhibitory effects”.

`CN1CCN(c2ccc(OC(F)(F)F)c(Nc3ncc4c(n3)-c3c(c(C(N)=O)nn3CCO)CC4)c2)CC1` [Onvasertib, Onvansertib] was tested, and the “Tumor volume on day 1 of administration” value [3, 4] was 134 mm^3, the “TGI on day 15” value [3, 4] was 80% and the “Tumor volume on day 15 of administration” value [3, 4] was 249 mm^3. For the same molecule, the “therapeutic efficacy of monotherapy in HT29-bearing mice” value ([3]; in words) was “relatively weak therapeutic efficacy”.

With `CC[C@@H]1C(=O)N(C)c2cnc(Nc3ccc(C(=O)N[C@H]4CC[C@H](N5CCN(CC6CC6)CC5)CC4)cc3OC)nc2N1C(C)C` [Volasertib] the IC50 (SK-OV-3 cells; [6]) was 82.1 nM, the IC50 (SK-OV-3 cells; [7]) was 70.5 nM and the IC50 (SK-OV-3 cells; KIF18A inhibitor AMG650 3.2 nM) was 60.5 nM. The IC50 (SK-OV-3 cells; KIF18A inhibitor AMG650 16 nM) was 38.2 nM, the IC50 (SK-OV-3 cells; KIF18A inhibitor AMG650 80 nM) was 9.9 nM and the IC50 (SK-OV-3 cells; KIF18A inhibitor AMG650 400 nM) was 8.1 nM. For the same molecule, the IC50 (SK-OV-3 cells; [8]) was 77.9 nM, the IC50 (SK-OV-3 cells; [9]) was 61.6 nM and the IC50 (SK-OV-3 cells; [10]) was 35.8 nM. For the same molecule, the IC50 (SK-OV-3 cells; [11]) was 10.1 nM, the IC50 (SK-OV-3 cells; [12]) was 5.7 nM and the IC50 (SK-OV-3 cells; [13]) was 5.3 nM. It also gave an IC50 (HT29 cells; [6]) of 22.8 nM, an IC50 (HT29 cells; [7]) of 37.8 nM and an IC50 (HT29 cells; KIF18A inhibitor AMG650 3.2 nM) of 34.9 nM. The IC50 (HT29 cells; KIF18A inhibitor AMG650 16 nM) was 19.5 nM, the IC50 (HT29 cells; KIF18A inhibitor AMG650 80 nM) was 18.3 nM and the IC50 (HT29 cells; KIF18A inhibitor AMG650 400 nM) was 15.5 nM. For the same molecule, the IC50 (HT29 cells; [8]) was 17.2 nM, the IC50 (HT29 cells; [9]) was 15.6 nM and the IC50 (HT29 cells; [10]) was 10.2 nM. For the same molecule, the IC50 (HT29 cells; [11]) was 1.2 nM, the IC50 (HT29 cells; [12]) was 1.4 nM and the IC50 (HT29 cells; [13]) was 0.7 nM.
